Measured values published in patent US10800791B2, “Triazole ACC inhibitors and uses thereof” (Gilead Apollo, LLC, priority 2015, dated 2020).
Converted amounts (≈) assume the structure as drawn. Like-named read-outs stand apart in the source and are kept apart here.

Columns and labels:
human (hACC2) = human (hACC2) (Homo sapiens, UniProt O00763); test: In vitro ACC inhibition assay (ADP-Glo), hACC2; type: biochemical; conditions: 5 nM ACC2, 20 μM ATP, 20 μM acetyl-CoA
Description: The detailed procedure is as follows. […] 10 μL ADP glo reagent was added. […] 20 μL kinase detection reagent was added.

C. albicans = test: Antifungal Activity Assay (broth microtiter MIC), C. albicans; type: cell-based, Candida albicans; conditions: for MIC: Candida albicans, ATCC90028, 48 h
Description: (§1) Compounds of the present invention were evaluated in an Antifungal Activity Assay. An exemplary procedure for the assay, which measures the susceptibility of various Candida species to antifungal compounds, follows. Compounds to be tested (including fluconazole and amphotericin B) were dissolved in DMSO to obtain a solution having a concentration of 1 mg/mL. These stock solutions were sterile filtered using a 0.22 um nylon syringe filter, then diluted in sterile water to achieve a final concentration of 128 μg/mL.
(§2) All species were grown from frozen stock by directly plating on to freshly prepared Sabouraud Dextrose agar (BD, Difco) and incubated overnight in ambient air at 35° C. for 24 h. A direct suspension was prepared in RPMI 1640+MOPS (Lonza, Biowhittaker) by taking individual colonies from the overnight cultures using sterile swabs soaked in sterile saline. The concentration of the suspension was determined using pre-determined standard curves. These suspensions were then diluted down to 5×10^3 CFU/mL to achieve a final concentration of 2.5×10^3 CFU/mL once added to the microtiter plate as per CLSI guidelines (M27-A3, Vol. 28 No. 14).
(§3) Broth microtiter MIC challenge plates were prepared following CLSI guidelines (M27-A3, Vol. 28 No. 14). The original CLSI guidelines focused on reading Candida MICs after 48 h of incubation. As reading after only 24 h offers a clear advantage of patient care, QC limits are being established for all drugs at 24 h. That being said there are no known interpretive breakpoints for amphotericin B at 24 h and the current fluconazole interpretive breakpoints are based on a 48 h reading. The MICs for the test compounds were recorded at 48 h. All MIC determinations were achieved by visually comparing the growth found in the antibiotic challenged wells to that of the growth control.

C. krusei = test: Antifungal Activity Assay (broth microtiter MIC), C. krusei; type: cell-based, Candida krusei; conditions: for MIC: Pichia kudriavzevii, ATCC6258, 48 h
Description: as §1, §2, §3

C. parapsilosis = test: Antifungal Activity Assay (broth microtiter MIC), C. parapsilosis; type: cell-based, Candida parapsilosis; conditions: for MIC: Lodderomyces parapsilosis, ATCC22019, 48 h
Description: as §1, §2, §3

fungal (fACC2) = fungal (fACC2) (UniProt Q00955); conditions: read-out: fACC2 (in vitro ACC2 Inhibition Assay, IC50), ADP-Glo, 5 nM ACC2, 20 μM ATP, 20 μM acetyl-CoA
Chain of fungal (fACC2) (Q00955 whole entry): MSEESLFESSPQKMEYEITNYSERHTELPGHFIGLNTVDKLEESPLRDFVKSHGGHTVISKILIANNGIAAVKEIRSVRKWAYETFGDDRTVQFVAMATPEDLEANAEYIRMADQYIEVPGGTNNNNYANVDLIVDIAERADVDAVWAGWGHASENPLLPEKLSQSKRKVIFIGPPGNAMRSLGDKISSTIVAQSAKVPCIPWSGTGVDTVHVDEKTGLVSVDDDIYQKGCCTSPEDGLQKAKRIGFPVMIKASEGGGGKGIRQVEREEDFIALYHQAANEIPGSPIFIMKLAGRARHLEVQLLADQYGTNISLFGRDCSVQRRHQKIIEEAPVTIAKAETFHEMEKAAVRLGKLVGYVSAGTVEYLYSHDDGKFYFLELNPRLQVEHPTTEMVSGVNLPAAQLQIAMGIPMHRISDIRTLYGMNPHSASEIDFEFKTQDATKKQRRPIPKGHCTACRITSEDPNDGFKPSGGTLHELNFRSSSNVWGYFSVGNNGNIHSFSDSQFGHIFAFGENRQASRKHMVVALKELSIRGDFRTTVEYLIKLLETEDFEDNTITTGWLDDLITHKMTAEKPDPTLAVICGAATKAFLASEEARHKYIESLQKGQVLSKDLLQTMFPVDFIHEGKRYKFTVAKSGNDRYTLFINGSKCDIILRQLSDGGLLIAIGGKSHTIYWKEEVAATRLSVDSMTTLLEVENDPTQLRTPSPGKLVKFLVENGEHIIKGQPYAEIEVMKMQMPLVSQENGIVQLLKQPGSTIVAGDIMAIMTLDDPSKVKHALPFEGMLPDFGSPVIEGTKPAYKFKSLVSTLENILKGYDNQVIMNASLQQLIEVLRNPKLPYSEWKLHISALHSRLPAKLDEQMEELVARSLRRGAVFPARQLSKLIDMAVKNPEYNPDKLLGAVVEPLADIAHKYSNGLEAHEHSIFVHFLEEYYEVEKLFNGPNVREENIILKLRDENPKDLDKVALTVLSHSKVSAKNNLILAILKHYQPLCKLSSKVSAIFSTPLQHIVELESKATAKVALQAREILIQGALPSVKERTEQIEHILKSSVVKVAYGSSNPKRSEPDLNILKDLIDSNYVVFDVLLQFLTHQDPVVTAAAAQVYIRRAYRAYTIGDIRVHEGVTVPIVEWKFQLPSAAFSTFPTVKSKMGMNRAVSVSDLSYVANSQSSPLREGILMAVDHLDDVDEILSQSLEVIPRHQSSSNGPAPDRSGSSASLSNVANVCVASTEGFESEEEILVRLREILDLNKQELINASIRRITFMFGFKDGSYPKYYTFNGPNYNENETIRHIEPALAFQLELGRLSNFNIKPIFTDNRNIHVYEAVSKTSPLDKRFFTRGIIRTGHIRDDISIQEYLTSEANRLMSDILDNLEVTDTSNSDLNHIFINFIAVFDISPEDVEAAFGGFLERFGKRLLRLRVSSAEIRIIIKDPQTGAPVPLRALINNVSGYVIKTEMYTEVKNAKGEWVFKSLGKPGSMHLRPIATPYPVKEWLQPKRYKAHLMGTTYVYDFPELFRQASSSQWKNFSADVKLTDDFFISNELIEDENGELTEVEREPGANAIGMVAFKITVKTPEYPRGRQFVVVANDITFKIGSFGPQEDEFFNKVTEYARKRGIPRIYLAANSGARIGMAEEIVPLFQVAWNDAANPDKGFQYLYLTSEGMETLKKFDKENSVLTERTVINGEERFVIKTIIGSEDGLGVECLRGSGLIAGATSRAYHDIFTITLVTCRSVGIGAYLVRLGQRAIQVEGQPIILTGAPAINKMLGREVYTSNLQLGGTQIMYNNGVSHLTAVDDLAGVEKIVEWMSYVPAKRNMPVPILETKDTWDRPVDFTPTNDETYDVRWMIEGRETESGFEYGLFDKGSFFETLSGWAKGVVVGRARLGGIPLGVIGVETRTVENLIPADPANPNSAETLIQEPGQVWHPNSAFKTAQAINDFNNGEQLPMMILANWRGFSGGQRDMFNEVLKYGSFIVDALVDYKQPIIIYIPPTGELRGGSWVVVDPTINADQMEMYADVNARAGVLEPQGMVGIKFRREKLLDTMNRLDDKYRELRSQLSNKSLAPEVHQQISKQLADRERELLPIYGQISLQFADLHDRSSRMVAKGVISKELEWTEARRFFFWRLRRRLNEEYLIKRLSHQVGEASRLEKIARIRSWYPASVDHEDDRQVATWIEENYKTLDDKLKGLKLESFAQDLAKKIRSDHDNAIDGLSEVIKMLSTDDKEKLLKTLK
Description: An exemplary procedure for the in vitro ACC inhibition assay, which can be used to determine the inhibitory action of compounds of the invention toward either human (hACC2) or fungal (fACC2), follows. The ADP-Glo™ Kinase Assay kit from Promega was used. The ADP-Glo™ Kinase Assay is a luminescent ADP detection assay to measure enzymatic activity by quantifying the amount of ADP produced during an enzyme reaction. The assay is performed in two steps; first, after the enzyme reaction, an equal volume of ADP-Glo™ Reagent is added to terminate the reaction and deplete the remaining ATP. Second, the Kinase Detection Reagent is added to simultaneously convert ADP to ATP and allow the newly synthesized ATP to be measured using a luciferase/luciferin reaction. Luminescence can be correlated to ADP concentrations by using an ATP-to-ADP conversion curve. […] 50 μL of the compound being tested (600 μM in DMSO) was added to a 384-well dilution plate. The compound was diluted 1:3 in succession in DMSO for each row for 11 wells. 0.5 μL ACC2 working solution was added to 384-well white Optiplate assay plate. 0.5 μL diluted compound solution in each column from step 2 was added to assay plate, each row containing 2 replicates. […] The plates were incubated at room temperature for 15 minutes. 5 μL substrate working solution was added to each well to initiate reaction. Final ACC2 reaction concentrations consist of: 5 nM ACC2, 20 μM ATP, 20 μM acetyl-CoA, 12 mM NaHCO3, 0.01% Brij35, 2 mM DTT, 5% DMSO, test compound concentrations: 30 μM, 10 μM, 3.33 μM, 1.11 μM, 0.37 μM, 0.123 μM, 0.0411 μM, 0.0137 μM, 0.00457 μM, 0.00152 μM, and 0.00051 μM. Plates were incubated at room temperature for 60 minutes. 10 μL ADP glo reagent was added. Plates were incubated at room temperature for 40 minutes. 20 μL kinase detection reagent was added. Plates were incubated at room temperature for 40 minutes, and then read on a Perkin Elmer EnVision 2104 plate reader for luminescence as Relative Light Units (RLU).
Data for each concentration, as well as the positive and negative controls were averaged, and the standard deviation calculated. Percent inhibition was calculated by the formula: 100×(average negative control−compound)/(average negative control−average positive control). The IC50 for each compound was calculated by fitting the data with a non-linear regression equation: Y=Bottom+(Top−Bottom)/(1+10 ((Log IC50−X)*HillSlope)), where X is the log of compound concentration and Y is percent inhibition.

[1] = Table 3a, ATCC 90028, 3 replicates, MIC recorded at 48 h, read-out: MIC, C. albicans ATCC 90028
[2] = Table 3b (additional results), ATCC 90028, 3 replicates, MIC recorded at 48 h, read-out: MIC, C. albicans ATCC 90028
[3] = Table 3a, ATCC 6258, 3 replicates, MIC recorded at 48 h, read-out: MIC, C. krusei ATCC 6258
[4] = Table 3b (additional results), ATCC 6258, 3 replicates, MIC recorded at 48 h, read-out: MIC, C. krusei ATCC 6258
[5] = Table 3a, ATCC 22019, 3 replicates, MIC recorded at 48 h, read-out: MIC, C. parapsilosis ATCC 22019
[6] = Table 3b (additional results), ATCC 22019, 3 replicates, MIC recorded at 48 h, read-out: MIC, C. parapsilosis ATCC 22019
[7] = Table 3a, 3 replicates, MIC recorded at 48 h
[8] = Table 3b (additional results), 3 replicates, MIC recorded at 48 h

Chain of human (hACC2) (O00763 whole entry): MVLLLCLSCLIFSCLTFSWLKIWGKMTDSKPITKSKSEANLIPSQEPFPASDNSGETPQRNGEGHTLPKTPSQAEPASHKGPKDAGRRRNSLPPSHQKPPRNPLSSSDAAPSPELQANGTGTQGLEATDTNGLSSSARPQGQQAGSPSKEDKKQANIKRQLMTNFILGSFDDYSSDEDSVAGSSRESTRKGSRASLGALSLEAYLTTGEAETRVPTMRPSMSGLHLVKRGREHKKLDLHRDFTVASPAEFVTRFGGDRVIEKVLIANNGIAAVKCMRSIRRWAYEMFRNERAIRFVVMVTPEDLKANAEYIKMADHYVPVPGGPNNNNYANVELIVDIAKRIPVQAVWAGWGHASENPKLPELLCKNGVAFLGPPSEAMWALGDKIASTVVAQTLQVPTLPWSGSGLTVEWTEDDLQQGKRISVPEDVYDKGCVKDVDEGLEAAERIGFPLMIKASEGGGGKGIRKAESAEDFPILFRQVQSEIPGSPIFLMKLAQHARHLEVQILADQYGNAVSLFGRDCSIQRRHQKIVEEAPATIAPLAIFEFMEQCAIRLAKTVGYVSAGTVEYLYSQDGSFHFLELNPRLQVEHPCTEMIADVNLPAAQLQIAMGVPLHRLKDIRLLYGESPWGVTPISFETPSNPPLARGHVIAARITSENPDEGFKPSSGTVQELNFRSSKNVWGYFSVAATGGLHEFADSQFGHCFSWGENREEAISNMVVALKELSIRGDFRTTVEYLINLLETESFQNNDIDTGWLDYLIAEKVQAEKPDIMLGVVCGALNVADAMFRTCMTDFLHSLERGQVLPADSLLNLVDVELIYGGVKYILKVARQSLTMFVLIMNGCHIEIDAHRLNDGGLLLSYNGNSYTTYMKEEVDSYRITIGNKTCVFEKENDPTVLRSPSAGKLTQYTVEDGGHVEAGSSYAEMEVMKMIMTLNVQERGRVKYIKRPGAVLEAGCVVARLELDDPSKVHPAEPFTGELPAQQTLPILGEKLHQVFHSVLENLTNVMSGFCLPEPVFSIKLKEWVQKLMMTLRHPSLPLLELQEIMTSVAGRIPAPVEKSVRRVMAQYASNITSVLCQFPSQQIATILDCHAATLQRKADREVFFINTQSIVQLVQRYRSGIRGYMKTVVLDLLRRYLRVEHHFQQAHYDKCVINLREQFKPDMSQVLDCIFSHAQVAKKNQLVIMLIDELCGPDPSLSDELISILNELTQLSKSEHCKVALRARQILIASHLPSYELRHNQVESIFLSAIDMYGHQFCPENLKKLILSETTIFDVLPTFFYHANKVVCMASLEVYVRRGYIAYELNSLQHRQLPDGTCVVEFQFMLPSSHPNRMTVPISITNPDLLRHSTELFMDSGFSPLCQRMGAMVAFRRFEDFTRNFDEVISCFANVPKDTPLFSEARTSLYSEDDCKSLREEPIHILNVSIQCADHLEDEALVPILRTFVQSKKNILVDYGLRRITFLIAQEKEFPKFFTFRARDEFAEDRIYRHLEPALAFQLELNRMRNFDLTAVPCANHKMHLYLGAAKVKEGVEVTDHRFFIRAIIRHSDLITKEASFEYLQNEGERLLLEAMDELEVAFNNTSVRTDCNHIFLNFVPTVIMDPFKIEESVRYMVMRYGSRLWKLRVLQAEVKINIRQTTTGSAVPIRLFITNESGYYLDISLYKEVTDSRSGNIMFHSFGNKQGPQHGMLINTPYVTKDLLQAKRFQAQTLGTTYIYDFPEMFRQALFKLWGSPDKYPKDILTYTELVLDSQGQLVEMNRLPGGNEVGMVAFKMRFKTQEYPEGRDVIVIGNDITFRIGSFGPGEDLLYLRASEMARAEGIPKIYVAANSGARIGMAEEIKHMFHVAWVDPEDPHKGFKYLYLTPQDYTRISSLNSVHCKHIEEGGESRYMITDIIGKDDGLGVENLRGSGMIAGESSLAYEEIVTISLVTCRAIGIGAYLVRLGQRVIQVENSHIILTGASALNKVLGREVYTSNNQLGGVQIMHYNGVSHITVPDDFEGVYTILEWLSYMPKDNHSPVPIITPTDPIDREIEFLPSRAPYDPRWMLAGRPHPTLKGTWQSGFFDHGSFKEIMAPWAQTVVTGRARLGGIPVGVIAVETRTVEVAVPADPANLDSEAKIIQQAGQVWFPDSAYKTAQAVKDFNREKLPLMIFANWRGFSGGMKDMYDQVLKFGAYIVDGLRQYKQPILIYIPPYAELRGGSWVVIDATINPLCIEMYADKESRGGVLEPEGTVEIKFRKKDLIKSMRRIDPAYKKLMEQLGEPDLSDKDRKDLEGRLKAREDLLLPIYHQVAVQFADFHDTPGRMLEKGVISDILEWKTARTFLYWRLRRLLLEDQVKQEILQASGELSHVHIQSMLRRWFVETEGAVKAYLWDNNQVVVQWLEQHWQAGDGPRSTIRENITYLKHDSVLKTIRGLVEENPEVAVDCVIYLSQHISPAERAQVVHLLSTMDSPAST

| Compound | IC50 (human (hACC2); Table 2a) | IC50 (human (hACC2); Table 2b, additional results) | MIC (C. albicans; [1]) | MIC (C. albicans; [2]) | MIC (C. krusei; [3]) | MIC (C. krusei; [4]) | MIC (C. parapsilosis; [5]) | MIC (C. parapsilosis; [6]) | IC50 (fungal (fACC2); Table 2a) | IC50 (fungal (fACC2); Table 2b, additional results) | further results |
| --- | --- | --- | --- | --- | --- | --- | --- | --- | --- | --- | --- |
| COCCCO[C@@H](Cn1c(=O)n(C(C)C(=O)NC(C)C)c(=O)c2c(C)c(-n3nccn3)sc21)c1cc(F)ccc1OC (stereo partly drawn) [Compound I-130] | 10 to 40 nM | 10 to 40 nM | 1.1 to 2 µg/mL (≈ 1.83 to 3.32 µM) | 2.01 to 4 µg/mL (≈ 3.34 to 6.64 µM) | 2.1 to 4 µg/mL (≈ 3.48 to 6.64 µM) | 1.01 to 2 µg/mL (≈ 1.68 to 3.32 µM) | 1.1 to 2 µg/mL (≈ 1.83 to 3.32 µM) | 1.01 to 2 µg/mL (≈ 1.68 to 3.32 µM) | 0.4 to 1 nM | 0.3 to 1 nM |  |
| COc1ccc(F)cc1[C@H](Cn1c(=O)n(C(C)C(=O)NC(C)C)c(=O)c2c(C)c(-n3nccn3)sc21)OCCO (stereo partly drawn) [Compound I-131] | 5 to 10 nM | 5 to 10 nM | 1.1 to 2 µg/mL (≈ 1.91 to 3.48 µM) | 2.01 to 4 µg/mL (≈ 3.5 to 6.96 µM) | 0.25 to 1 µg/mL (≈ 0.435 to 1.74 µM) | 1.01 to 2 µg/mL (≈ 1.76 to 3.48 µM) | 1.1 to 2 µg/mL (≈ 1.91 to 3.48 µM) | 1.01 to 2 µg/mL (≈ 1.76 to 3.48 µM) | 0.4 to 1 nM | 0.3 to 1 nM |  |
| COCCO[C@@H](Cn1c(=O)n(C(C)(C)C(=O)NC(C)C)c(=O)c2c(C)c(-n3nccn3)sc21)c1ccccc1OC [Compound I-133] | 5 to 10 nM | 5 to 10 nM | 1.1 to 2 µg/mL (≈ 1.88 to 3.42 µM) | 1.01 to 2 µg/mL (≈ 1.73 to 3.42 µM) | 1.1 to 2 µg/mL (≈ 1.88 to 3.42 µM) | 0.25 to 1 µg/mL (≈ 0.428 to 1.71 µM) | 2.1 to 4 µg/mL (≈ 3.59 to 6.84 µM) | 0.25 to 1 µg/mL (≈ 0.428 to 1.71 µM) | 1 to 5 nM | 1 to 5 nM |  |
| COCCO[C@@H](Cn1c(=O)n(C(C)(C)C(=O)NC2CCC2)c(=O)c2c(C)c(-n3nccn3)sc21)c1cc(F)ccc1OC [Compound I-134] | 5 to 10 nM | 5 to 10 nM |  |  |  |  |  |  | 1 to 5 nM | 1 to 5 nM | MIC, C. albicans ATCC 90028 (C. albicans; [7]): B (MIC of 1.1-2.0 μg/mL); MIC, C. albicans ATCC 90028 (C. albicans; [8]): D (MIC of >4.01 μg/mL); MIC, C. krusei ATCC 6258 (C. krusei; [7]): B (MIC of 1.1-2.0 μg/mL); MIC, C. krusei ATCC 6258 (C. krusei; [8]): B (MIC of 1.01-2.0 μg/mL); MIC, C. parapsilosis ATCC 22019 (C. parapsilosis; [7]): B (MIC of 1.1-2.0 μg/mL); MIC, C. parapsilosis ATCC 22019 (C. parapsilosis; [8]): A (MIC of 0.25-1.0 μg/mL) |
| COc1ccc(F)cc1[C@H](Cn1c(=O)n(C(C)(C)C(=O)NC(C)C)c(=O)c2c(C)c(-n3nccn3)sc21)OCCC(=O)O [Compound I-135, 3-[(1R)-1-(5-fluoro-2-methoxyphenyl)-2-(5-methyl-3-[1-methyl-1-[(propan-2-yl)carbamoyl]ethyl]-2,4-dioxo-6-(2H-1,2,3-triazol-2-yl)-1H,2H,3H,4H-thieno[2,3-d]pyrimidin-1-yl)ethoxy]propanoic acid] | 10 to 40 nM | 10 to 40 nM | 0.25 to 1 µg/mL (≈ 0.405 to 1.62 µM) | 0.25 to 1 µg/mL (≈ 0.405 to 1.62 µM) | 2.1 to 4 µg/mL (≈ 3.41 to 6.49 µM) | 0.25 to 1 µg/mL (≈ 0.405 to 1.62 µM) | 2.1 to 4 µg/mL (≈ 3.41 to 6.49 µM) | 0.25 to 1 µg/mL (≈ 0.405 to 1.62 µM) | 1 to 5 nM | 0.3 to 1 nM |  |
| COc1ccccc1[C@H](Cn1c(=O)n(C(C)(C)C(N)=O)c(=O)c2c(C)c(-n3nccn3)sc21)OCCC#N [Compound I-137, 2-[1-[(2R)-2-(2-cyanoethoxy)-2-(2-methoxyphenyl)ethyl]-5-methyl-2,4-dioxo-6-(2H-1,2,3-triazol-2-yl)-1H,2H,3H,4H-thieno[2,3-d]pyrimidin-3-yl]-2-methylpropanamide] | 1 to 5 nM | 1 to 5 nM | 2.1 to 4 µg/mL (≈ 3.91 to 7.44 µM) | 2.01 to 4 µg/mL (≈ 3.74 to 7.44 µM) | 2.1 to 4 µg/mL (≈ 3.91 to 7.44 µM) | 2.01 to 4 µg/mL (≈ 3.74 to 7.44 µM) | 2.1 to 4 µg/mL (≈ 3.91 to 7.44 µM) | 2.01 to 4 µg/mL (≈ 3.74 to 7.44 µM) | 1 to 5 nM | 1 to 5 nM |  |
| COc1ccc(F)cc1[C@H](Cn1c(=O)n(C(C)(C)C(=O)O)c(=O)c2c(C)c(-n3nccn3)sc21)OCCN1CC(C#N)C1 [Compound I-145] |  | 10 to 40 nM | 2.1 to 4 µg/mL (≈ 3.43 to 6.54 µM) | > 4.01 µg/mL | 2.1 to 4 µg/mL (≈ 3.43 to 6.54 µM) | > 4.01 µg/mL | 2.1 to 4 µg/mL (≈ 3.43 to 6.54 µM) | > 4.01 µg/mL | 1 to 5 nM | 1 to 5 nM |  |
| COc1ccc(F)cc1[C@H](Cn1c(=O)n(C(C)(C)C(=O)NC(C)C)c(=O)c2c(C)c(-n3nccn3)sc21)OCCN1CC(C#N)C1 [Compound I-146] |  | > 40 nM |  |  |  |  |  |  | 1 to 5 nM | 1 to 5 nM | MIC (C. albicans; read-out: MIC, C. albicans ATCC 90028, Table 3a, 3 replicates, MIC recorded at 48 h): 2.1 to 4 µg/mL (≈ 3.22 to 6.13 µM); MIC (C. albicans; read-out: MIC, C. albicans ATCC 90028, Table 3b (additional results), 3 replicates, MIC recorded at 48 h): 1.01 to 2 µg/mL (≈ 1.55 to 3.06 µM); MIC (C. krusei; read-out: MIC, C. krusei ATCC 6258, Table 3a, 3 replicates, MIC recorded at 48 h): 2.1 to 4 µg/mL (≈ 3.22 to 6.13 µM); MIC (C. krusei; read-out: MIC, C. krusei ATCC 6258, Table 3b (additional results), 3 replicates, MIC recorded at 48 h): 0.25 to 1 µg/mL (≈ 0.383 to 1.53 µM); MIC (C. parapsilosis; read-out: MIC, C. parapsilosis ATCC 22019, Table 3a, 3 replicates, MIC recorded at 48 h): 2.1 to 4 µg/mL (≈ 3.22 to 6.13 µM); MIC (C. parapsilosis; read-out: MIC, C. parapsilosis ATCC 22019, Table 3b (additional results), 3 replicates, MIC recorded at 48 h): 0.25 to 1 µg/mL (≈ 0.383 to 1.53 µM) |
